21 compounds from PubChem BioAssay (NCI) can be followed below.

Among the test systems are M19-MEL melanoma; DMS 273 small cell lung; LXFL 529 NSCLC; SNB-78 CNS; DLD-1 colon; RXF-631 renal; HOP-18 NSCLC.
Holding throughout (assay): inhibition of tumour cell growth, NCI panel, 48 h

Each structure is given as a SMILES string. Several values for one entry are separate records, joined by “and”; a condition that tells them apart may be missing. Equal entries are not always repeated.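 Values below derive from 48-hour exposures of cells grown in 96-well plates, with endpoints linearly interpolated between the two concentrations bracketing the appropriate inhibition level. GI50 is the concentration that inhibits growth by half. TGI is the concentration that stops growth completely.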 Where only a bound is given, the exact number is not on record here.

In the case of `CC(=O)NC(CCCCNCc1ccccc1)C(=O)NCc1ccccc1` (stereo unspecified), the TGI in the assay on M19-MEL melanoma, in the assay with DMS 273 small cell lung, in the assay on LXFL 529 NSCLC, in the assay with SNB-78 CNS and in the assay with DLD-1 colon was > 100 µM throughout.

For the compound `CC(=O)NC(CCCNC(=O)N(C)N=O)C(=O)NCc1ccccc1` (stereo unspecified), the TGI with RXF-631 renal, in the assay with M19-MEL melanoma, in the assay with DMS 273 small cell lung, with LXFL 529 NSCLC, with SNB-78 CNS and in the assay with DLD-1 colon was > 100 µM in each case.

Take `COc1ccc(OC2(c3cc(OC)ccc3OC)OC(=O)c3ccccc32)cc1` (stereo unspecified): the TGI with HOP-18 NSCLC, in the assay with RXF-631 renal, with M19-MEL melanoma, in the assay with DMS 273 small cell lung, with LXFL 529 NSCLC and with SNB-78 CNS was > 100 µM each time. In addition, the TGI in the assay with DLD-1 colon is > 100 µM.

On to `Cc1cc(N(CCC#N)CCC#N)ccc1/C=C1N=C(/C=C\c2ccccc2)N(NC(=O)CC(=O)Nc2ccccc2Cl)C\1=O`, for which the TGI in the assay on HOP-18 NSCLC, in the assay on RXF-631 renal, in the assay with M19-MEL melanoma, in the assay with LXFL 529 NSCLC and with DLD-1 colon was > 100 µM in each case.

As to `Cc1cc(Cl)ccc1NC(=O)/C(=N\NC(C)(C)C)C(C#N)c1nc(-c2ccc([N+](=O)[O-])cc2)cs1` (stereo unspecified), the TGI in the assay on HOP-18 NSCLC, in the assay with RXF-631 renal, with M19-MEL melanoma, in the assay on DMS 273 small cell lung, in the assay on LXFL 529 NSCLC and with SNB-78 CNS was > 100 µM in each case. Moreover, the TGI in the assay on DLD-1 colon was > 100 µM.

Turning to `NC(=O)N/N=C(\CC1OC(=O)c2ccccc21)c1ccc([N+](=O)[O-])cc1` (stereo unspecified), the TGI in the assay with M19-MEL melanoma is 68.1 µM; in the assay with DMS 273 small cell lung, 76.1 µM; in the assay with LXFL 529 NSCLC, > 100 µM; in the assay with DLD-1 colon it was 47.9 µM.

`COc1cc([C@@H]2c3cc4c(cc3[C@@H](NCc3ccccc3F)C3COC(=O)[C@@H]32)OCO4)cc(OC)c1O` (stereo partly specified): the TGI with HOP-18 NSCLC was > 100 µM; in the assay on RXF-631 renal, 19.8 µM; in the assay with M19-MEL melanoma it was 23.4 µM; with DMS 273 small cell lung, 21.2 µM; in the assay with LXFL 529 NSCLC it was 88.2 µM; with SNB-78 CNS, > 100 µM. Besides, the TGI in the assay on DLD-1 colon is > 100 µM.

In the case of `CCOc1ccc(N(CC(=O)N2CC(=O)Nc3cc(C)c(C)cc32)C(C)=O)cc1`, the TGI in the assay with HOP-18 NSCLC, in the assay with M19-MEL melanoma, in the assay on DMS 273 small cell lung, in the assay with LXFL 529 NSCLC, in the assay on SNB-78 CNS and in the assay on DLD-1 colon was > 100 µM each time.

As to `N#C/C(c1nc2ccccc2[nH]1)=c1\s/c(=C/c2ccccc2)c(=O)n1-c1ccccc1`, the TGI in the assay on M19-MEL melanoma, with DMS 273 small cell lung, in the assay with LXFL 529 NSCLC and in the assay on DLD-1 colon was > 100 µM in each case.

On to `CC(=O)OCC12CC(CC1OC(C)=O)c1ccccc12` (stereo unspecified), for which the TGI with HOP-18 NSCLC, in the assay with RXF-631 renal, with M19-MEL melanoma, in the assay with DMS 273 small cell lung and in the assay on LXFL 529 NSCLC was > 100 µM throughout.

Regarding `CCOC(=O)C(C)NC(=O)NC12CC3CC(CC(F)(C3)C1)C2` (stereo unspecified), the TGI was > 100 µM with M19-MEL melanoma; > 100 µM in the assay on DMS 273 small cell lung; > 100 µM with LXFL 529 NSCLC; 83.3 µM with SNB-78 CNS; > 100 µM with DLD-1 colon.

As for `CC1(O)CC2C(CC1SC1CC3C(CC1(C)O)C3(C)C)C2(C)C` (stereo unspecified), the TGI is > 100 µM in the assay on HOP-18 NSCLC; 63.4 µM in the assay with M19-MEL melanoma; > 100 µM in the assay on DMS 273 small cell lung; > 100 µM with LXFL 529 NSCLC; > 100 µM with SNB-78 CNS; > 100 µM in the assay with DLD-1 colon.

As to `COc1cccc(C2=NC(C(C)C)CO2)c1OC` (stereo unspecified), the TGI in the assay on M19-MEL melanoma, in the assay on DMS 273 small cell lung, in the assay with LXFL 529 NSCLC, in the assay on SNB-78 CNS and with DLD-1 colon was > 100 µM each time.

Regarding `CCOC(=O)c1c(CN2CCNCC2)nc2ccc(Cl)cc2c1-c1ccccc1`, the TGI amounted to 15.5 µM in the assay with HOP-18 NSCLC; 6.68 µM with RXF-631 renal; 3.61 µM with M19-MEL melanoma; 5.56 µM in the assay on DMS 273 small cell lung; 3.2 µM with LXFL 529 NSCLC; 24.7 µM in the assay on SNB-78 CNS. Besides, the TGI in the assay on DLD-1 colon is 10.1 µM.

For the compound `O=C1C(Cl)C(c2ccccc2Cl)N1n1cnc2ccccc2c1=O` (stereo unspecified), the TGI with M19-MEL melanoma, in the assay with DMS 273 small cell lung, in the assay with LXFL 529 NSCLC, with SNB-78 CNS and in the assay with DLD-1 colon was > 100 µM each time.

For `Cc1ccc(NC(=O)C2C3C=CC(O3)C2C(=O)O)cc1` (stereo unspecified), the TGI in the assay with HOP-18 NSCLC, in the assay with M19-MEL melanoma, in the assay on DMS 273 small cell lung, in the assay with LXFL 529 NSCLC, with SNB-78 CNS and in the assay with DLD-1 colon was > 100 µM throughout.

`N#CC(NNC(=O)Cc1ccccc1)c1ccc([N+](=O)[O-])cc1` (stereo unspecified): the TGI in the assay on HOP-18 NSCLC, in the assay on M19-MEL melanoma, with DMS 273 small cell lung, in the assay with LXFL 529 NSCLC, in the assay on SNB-78 CNS and in the assay with DLD-1 colon was > 100 µM throughout.

As to `COc1cc2c(c(OC)c1OC)-c1ccc(SC)c(=O)cc1[C@@H](NC(=O)c1cccc([N+](=O)[O-])c1)CC2`, the TGI in the assay on M19-MEL melanoma was > 100 µM; with DMS 273 small cell lung, 70.2 µM; in the assay with SNB-78 CNS, > 100 µM; with DLD-1 colon, > 100 µM.

For `N=S(c1ccccc1[N+](=O)[O-])c1ccccc1[N+](=O)[O-]`, the TGI in the assay with HOP-18 NSCLC is 19.5 µM and 15.8 µM; in the assay with RXF-631 renal, 3.43 µM; in the assay on M19-MEL melanoma, 12.3 µM and 6.84 µM; with DMS 273 small cell lung it was 5.15 µM and 7.87 µM; in the assay with LXFL 529 NSCLC, 7.83 µM and 5.92 µM; in the assay on SNB-78 CNS, 9.2 µM and 8.28 µM. Moreover, in the assay on DLD-1 colon, the TGI was 4.15 µM and 2.08 µM. Further, the GI50 in the assay with DLD-1 colon was 1810 nM and 636 nM.

With `CC(C)N(C(=O)C12C3C4C5C3C1(C(=O)O)C5C42)C(C)C` (stereo unspecified), the TGI in the assay with RXF-631 renal, in the assay on M19-MEL melanoma, in the assay with DMS 273 small cell lung, in the assay with LXFL 529 NSCLC, in the assay on SNB-78 CNS and with DLD-1 colon was > 100 µM throughout.

Take `CCc1cccc(C(C)C)c1NC(=O)/C(=N\NC(N)=O)C(C(=O)OC)c1cnc2ccccc2n1` (stereo unspecified): the TGI in the assay on HOP-18 NSCLC was 98.2 µM; in the assay with RXF-631 renal, > 100 µM; in the assay on M19-MEL melanoma it was 32.4 µM; with DMS 273 small cell lung, > 100 µM; in the assay with LXFL 529 NSCLC, > 100 µM; in the assay on SNB-78 CNS, > 100 µM. Further, the TGI in the assay on DLD-1 colon was > 100 µM.
